According to patent US9399649B2, “Compounds for treating spinal muscular atrophy” (PTC Therapeutics Inc., priority 2012, dated 2016):

Key:
[1] = tested on: SMA Δ7 homozygous knockout mice; test: Survival of neonatal Δ7 SMA mice; assay type: in vivo; details: IP QD PND 3 to PND 23, then orally BID from PND 24 until study end, FIG. 15
Method: The change in the number of surviving mice over time is used to determine whether treatment with a test compound improves survival.
SMA Δ7 homozygous knockout mice are dosed intraperitoneally (IP) with test compound or vehicle (100% DMSO) QD from PND 3 until the dose regimen is switched to an oral dose BID in 0.5% hydroxypropylmethyl cellulose (HPMC) with 0.1% Tween-80 at a dose 3.16-fold higher than the dose used for IP and later switched to an oral dose QD in 0.5% hydroxypropylmethyl cellulose (HPMC) with 0.1% Tween-80 at a dose 6.32-fold higher than the dose used for IP. The number of surviving mice in each group is recorded every day and plotted as a percent of total number of mice. Tissues of SMA Δ7 and age-matched heterozygous mice are collected for the measurement of Smn protein levels and processed as detailed in Example 10. The total protein normalized Smn protein levels measured in the tissues are plotted as a percent of those in the age-matched heterozygous mice tissues, with the Smn level in heterozygous mice set to 100 percent. The level of Smn protein in the test compound treated mice tissue relative to that in heterozygous mice tissue is indicated as a percent value above each bar in the graph.

[2] = tested on: SMA Δ7 homozygous knockout mice; test: Righting reflex in neonatal Δ7 SMA mice; assay type: in vivo; details: IP QD from PND 3, measured PND 10, 14 and 18, FIG. 14
Method: The functional change in righting reflex of neonatal SMA mice is used to determine whether treatment with a test compound improves righting reflex.
SMA Δ7 homozygous knockout mice are dosed intraperitoneally (IP) with test compound or vehicle (100% DMSO) QD from PND 3 until the dose regimen is switched to an oral dose BID in 0.5% hydroxypropylmethyl cellulose (HPMC) with 0.1% Tween-80 at a dose 3.16-fold higher than the dose used for IP. The righting reflex time is measured as the time taken by a mouse to flip over onto its feet after being laid on its back. Righting reflex is measured five times for each mouse (allowing a maximal time of 30 sec for each try) with 5 minutes between each measurement. The righting reflex time for SMA Δ7 homozygous knockout mice treated with test compound or vehicle and age-matched heterozygous mice is measured on PND 10, 14 and 18 and plotted.

[3] = tested on: full length SMN2 minigene mRNA containing SMN2 exon 7; test: SMN2 minigene mRNA splicing RT-qPCR assay in cultured cells; assay type: cell-based, human; details: for SMN2 minigene FL mRNA relative to vehicle: HEK293H cells with SMN2-A minigene, rising concentrations, 24 hr, FIG. 3; for EC (1.5-fold): Homo sapiens, HEK293-H, HEK293H cells stably transfected with SMN2-A minigene, 24 hours, 7-point concentration curve, concentration giving 1.5-fold full length SMN2 mRNA vs vehicle, read-out: EC1.5x for production of full length SMN2 mRNA
Method in brief: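 Read-out is minigene FL mRNA (exon 7 included) relative to vehicle, from efficiency-corrected ΔΔCt with GAPDH normalisation. Primers and probe span exon 7, exon 8 and luciferase, so endogenous SMN is not detected. Stable SMN2-A minigene HEK293H cells, 24 h compound exposure at 37 °C, 7-point curve in duplicate.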

Row | SMILES | survival [1] | righting reflex [2] | SMN2 minigene FL mRNA relative to vehicle [3] | EC (1.5-fold) [3] [µM]
1 | Cc1cn2cc(-c3cc4ccc(N5CCN(C)CC5)cc4c(=O)o3)nc2c(C)n1 [Cpd 65, 3-(6,8-dimethylimidazo[1,2-a]pyrazin-2-yl)-7-(4-methylpiperazin-1-yl)-1H-isochromen-1-one] | improved compared to vehicle treated mice | improved compared to vehicle treated mice | increased SMN2 minigene FL mRNA at low concentrations | ≤ 0.1
2 | Cc1cn2cc(-c3cc4ccc(N5CCN6CCC[C@H]6C5)cc4c(=O)o3)nc2c(C)n1 [Cpd 69, 3-(6,8-dimethylimidazo[1,2-a]pyrazin-2-yl)-7-[(8aS)-hexahydropyrrolo[1,2-a]pyrazin-2(1H)-yl]-1H-isochromen-1-one] | improved compared to vehicle treated mice | improved compared to vehicle treated mice | increased SMN2 minigene FL mRNA at low concentrations | ≤ 0.1
